Data published in patent US4297353A, “Non-irritating injectable dosage forms” (priority 1980, dated 1981).
Where two headings read alike, the source gives them in different places.

Legend:
[1] = system: muscles of rabbits (sacrospinales group); conditions: rabbit, in vivo
[2] = system: muscles of rabbits (sacrospinales group); test: Intramuscular tissue irritation in rabbits, microscopic observations (Example 2)

| Compound | evidence of connective tissue irritation [1] | evidence of suppuration in the inflammatory zone ([2]; Day 4 post-injection, regardless of concentration) | evidence of connective tissue irritation ([2]; Day 7 and Day 14) |
| --- | --- | --- | --- |
| CN(C)CCCN1c2ccccc2Sc2ccc(Cl)cc21 [chloropromazine, Chlorpromazine] | became apparent by Day 7 and more frequent and extreme in its occurrence by Day 14 |  |  |
| CSc1ccc2c(c1)N(CCC1CCCCN1C)c1ccccc1S2 (stereo not drawn) [Mellaril base, thioridazine] |  | high-frequency evidence of suppuration | became apparent by Day 7 and more frequent and extreme in its occurrence by Day 14 |
